In ChEMBL document CHEMBL1136837, “Unified QSAR approach to antimicrobials. 4. Multi-target QSAR modeling and comparative multi-distance study of the giant components of antiviral drug-drug complex networks” (Bioorg Med Chem, 2009):
Starred links: 1 amine or outer side, 2 acyl side, 3 side chain; linkers in the order of their positions; H or OH if unused. Non-standard residues stand in square brackets, D forms with d. Residues, ends and D or L forms follow the SMILES beside them. *: point of attachment. NH(1S-phenylpropyl) = CC[C@H](N*)c1ccccc1; NH(1R-phenylethyl) = C[C@@H](N*)c1ccccc1; Hyp = O=C(O)[C@@H]1C[C@@H](O)CN1; azaNva = CCCN(N[*:1])C(=O)[*:2]; X7 = C[C@H](N*)C1CCCCC1; Bn = c1ccc(C*)cc1

These compounds were tested on Human betaherpesvirus 5 (assay: Antiviral activity against Human cytomegalovirus). Conditions: Human betaherpesvirus 5.
Type: functional, organism-based

SMILES	IC50 [nM]
CC(=O)c1c(Br)n([C@H]2C[C@H](O)[C@@H](CO)O2)c2cc(Cl)c(Cl)cc12	340
Cc1c(C(=O)N2CCC[C@H]2C(=O)N2CC[C@H]3[C@H]2[C@H](C)C(=O)N3C(=O)C2CC2)sc2ccc(Cl)cc12	190
OC[C@H]1O[C@@H](n2c(Cl)nc3cc(Cl)c(Cl)cc32)[C@H](O)[C@@H]1O	3200
CCCOc1ccc(NC(=O)N2CCC[C@H]2C(=O)N2CC[C@H]3[C@H]2[C@H](C)C(=O)N3C(=O)C2CC2)cc1	210
C[C@@H]1C(=O)N(C(=O)C2CC2)[C@H]2CCN(C(=O)[C@@H]3CCCN3S(=O)(=O)c3ccc4ccccc4c3)[C@H]12	190

What follows are compounds tested on Hepatitis C virus (assay: Antiviral activity against Hepatitis C virus). Conditions: Hepatitis C virus.
Type: functional, organism-based, Hepacivirus hominis

SMILES	IC50 [nM]
CCCN(NC(=O)[C@@H]1C[C@@H](OCc2ccccc2)CN1C(=O)[C@@H](NC(=O)[C@@H](NC(=O)[C@@H](CCC(=O)O)NC(=O)[C@H](CC(=O)O)NC(C)=O)[C@@H](C)CC)C(C)C)C(=O)N[C@@H](C)C1CCCCC1 (Ac-D[dE]IV[Hyp](Bn)[azaNva]-X7)	420
N#Cc1ccccc1COc1cccc(C(=O)/C=C(\O)C(=O)O)c1	230
O=C(O)[C@H](Cc1ccccc1)N(Cc1cccc(F)c1)C(=O)c1ccc(Cl)cc1Cl	3200
C[C@@]1(O)[C@H](O)[C@@H](CO)O[C@H]1n1ncc2c(N)ncnc21	100000
CCCC1(CC(=O)O)OCCc2c1[nH]c1c(F)ccc(C#N)c21 (single isomer, unassigned)	5200
CCc1ccc(C(=O)CC(=O)C(=O)O)cc1	47000
CNc1nc(-c2cc(O[C@@H]3C[C@H]4C(=O)N[C@]5(C(=O)O)C[C@H]5/C=C\CCCCC[C@H](NC(=O)OC5CCCC5)C(=O)N4C3)c3ccc(OC)cc3n2)cs1	2.5
CC(=O)N[C@H](C(=O)N[C@H](C(=O)N1C[C@H](Oc2cccc(Br)c2)C[C@H]1C(=O)NC1(C(=O)O)CC1)C(C)C)C1CCCCC1	52000
CCC[C@@]1(CC(=O)O)OCCc2c1[nH]c1c(C)cc(F)c(C#N)c21	630
COc1ccc2c(O[C@@H]3C[C@H]4C(=O)N[C@]5(C(=O)O)C[C@H]5/C=C\CCCCC[C@H](NC(=O)OC5CCCC5)C(=O)N4C3)cc(-c3csc(N)n3)nc2c1	3.5
CC(=O)N[C@H](C(=O)N[C@H](C(=O)N1C[C@H](OCc2cccc3ccccc23)C[C@H]1C(=O)N[C@@]1(C(=O)O)C[C@@H]1C(C)C)C(C)C)C1CCCCC1	640000
N#Cc1ccc(Br)cc1COc1cccc(C(=O)/C=C(\O)C(=O)O)c1	100
CCCN(NC(=O)[C@@H]1C[C@@H](OCc2ccccc2)CN1C(=O)[C@@H](NC(=O)[C@@H](NC(=O)[C@@H](CCC(=O)O)NC(=O)[C@H](CC(=O)O)NC(C)=O)[C@@H](C)CC)C(C)C)C(=O)N[C@H](C)c1ccccc1 (Ac-D[dE]IV[Hyp](Bn)[azaNva]-{NH(1R-phenylethyl)})	4300
COc1ccc2c(O[C@@H]3C[C@H]4C(=O)N[C@]5(C(=O)O)C[C@H]5/C=C\CCCCC[C@H](NC(=O)OC(C)(C)C)C(=O)N4C3)cc(-c3csc(N)n3)nc2c1	5.5
COc1ccc2c(O[C@@H]3C[C@H]4C(=O)N[C@]5(C(=O)O)C[C@H]5/C=C\CCCCC[C@H](NC(=O)OC(C)(C)C)C(=O)N4C3)cc(-n3ccc(C)n3)nc2c1	3
COc1ccc2c(O[C@@H]3C[C@H]4C(=O)N[C@]5(C(=O)O)C[C@H]5/C=C\CCCCC[C@H](NC(=O)OC(C)(C)C)C(=O)N4C3)cc(-n3cccc3)nc2c1	5.1
Cc1cccc(CN(C(=O)c2ccc(Cl)cc2Cl)[C@@H](Cc2ccccc2)C(=O)O)c1	1800
CC(C)(C)C(=O)CC(=O)C(=O)O	50000
O=C(CC(=O)C(=O)O)Cc1ccco1	50000
CCCN(NC(=O)[C@@H]1C[C@@H](OCc2ccccc2)CN1C(=O)[C@@H](NC(=O)[C@@H](NC(=O)[C@@H](CCC(=O)O)NC(=O)[C@H](CC(=O)O)NC(C)=O)[C@@H](C)CC)C(C)C)C(=O)N[C@@H](CC)c1ccccc1 (Ac-D[dE]IV[Hyp](Bn)[azaNva]-{NH(1S-phenylpropyl)})	440
O=C(CC(=O)C(=O)O)Cc1ccncc1	50000
